Consider seven molecules from publication PMC6722648, “Phenazine Derivatives with Anti-Inflammatory Activity from the Deep-Sea Sediment-Derived Yeast-Like Fungus Cystobasidium laryngis IV17-028” (Marine Drugs, 2019).

Like-named read-outs stand apart in the source and are kept apart here. A value given as a limit tells only on which side of the number the result lay.

Data set [1] deals with LPS-induced NO production in RAW 264.7 cells. The experiment in a line: NO assay: nitrite quantification (Griess) in LPS-stimulated macrophages. The data set is classed as cell-based, murine. The note with it: Mus musculus, RAW264.7, LPS 200 ng/mL, 24 h, read-out: EC50 against NO assay. How it is done: NO2^− accumulation was used as an indicator of NO production as described previously. RAW 264.7 cells were plated at 5 × 10^5 cells/mL, pre-treated with various concentrations (0.3, 1, 3, 10 or 30 μg/mL) of 1–7 and stimulated with LPS (200 ng/mL) for 24 h. The supernatants were mixed with an equal volume of Griess reagent (1% sulfanilamide, 0.1% naphthylethylenediamine dihydrochloride and 2% phosphoric acid) and incubated at room temperature for 10 min. NaNO2 was used to generate a standard curve, and the concentration of nitrite in the medium was determined by measuring optical density at 540 nm. Cell viability was determined by XTT assay as described previously. And it was confirmed that the concentration of compounds used in this study has no significant effect on cell viability.
Background: Griess reagent forms a coloured azo dye with nitrite.

The nature of data set [2]: Stability to light and on storage (observation).

`O=C(O)c1cccc2nc3ccccc3nc12` [Compound 5, phenazine-1-carboxylic acid]: the half-maximal effective concentration (EC50) (commonly the concentration giving half of the maximal effect) was found to be 17.1 µg/mL in data set [1] (compounds 0.3-30 μg/mL) and 76.1 µM in data set [1].

`C[C@@H](O)c1cccc2nc3c([C@@H](C)O)cccc3nc12` [Compound 3, saphenol]: the EC50 was determined as 14.7 µg/mL in data set [1] (compounds 0.3-30 μg/mL) and 54.7 µM in data set [1].

With `C[C@@H](O)c1cccc2nc3c(C(N)=O)cccc3nc12` [Compound 2, saphenic amide], the EC50 in data set [1] (compounds 0.3-30 μg/mL) is over 30 µg/mL.

As to `CC(OC(=O)c1ccccc1N)c1cccc2nc3c(C(=O)O)cccc3nc12` (centres unmarked) [Compound 1, 6-[1-(2-aminobenzoyloxy)ethyl]-1-phenazinecarboxylic acid], the storage stability result in data set [2] (in the dark and fridge) is “changelessly stored in the dark and fridge for several weeks”. The “stability under the light” value in data set [2] (under the light) is “easily changed under the light”. Further, the results for the EC50 in data set [1] (compounds 0.3-30 μg/mL) and in data set [1] were 18.1 µg/mL and 46.8 µM, respectively.

With `CC(=O)c1cccc2nc3c(C(=O)O)cccc3nc12` [Compound 7, 6-acetyl-phenazine-1-carboxylic acid], the EC50 in data set [1] (compounds 0.3-30 μg/mL) is 5.32 µg/mL; in data set [1] it was 20 µM.

Take `CO[C@H](C)c1cccc2nc3c(C(=O)O)cccc3nc12` [Compound 6]: the values for the EC50 in data set [1] (compounds 0.3-30 μg/mL) and in data set [1] were 5.53 µg/mL and 19.6 µM, respectively.

`C[C@@H](O)c1cccc2nc3c(C(=O)O)cccc3nc12` [Compound 4, (R)-saphenic acid]: the “colour change of yellow needle form in light” value in data set [2] (day light as well as fluorescent light, also previously reported [9]) was “turned brown after several hours”. Also, the “colour change in hydrophilic solvents under the light” value in data set [2] (methanol and dimethyl sulfoxide, under the light) is listed as “quickly turned from yellow into orange”. Further, the concentration giving a half-maximal response (EC50) in data set [1] (compounds 0.3-30 μg/mL) is 6.15 µg/mL; in data set [1], 22.9 µM.
